{
  "source": "patent US12351652B2",
  "about": "“Hemagglutinin-binding peptide” (priority 2019, dated 2025)",
  "key": {"[1]": {"test_system": "influenza virus A/Nagasaki/HA-58/2009 (H1N1)", "assay_type": "cell-based"}, "[2]": {"test_system": "influenza virus A/Puerto Rico/8/34 (H1N1)", "assay_type": "cell-based"}, "[3]": {"test_system": "influenza virus A/Duck/Pennsylvania/84 (H5N2)", "assay_type": "cell-based"}, "[4]": {"test_system": "influenza virus A/Puerto Rico/8/34 (H1N1)", "parameters": "species or system BALB/cA Jcl [SPF] mice", "settings": "mouse"}},
  "note": "*1 amine or outer side, *2 acyl side, *3 side chain or, on linkers, in order; H or OH if unused. Where a SMILES comes first, the peptide text is derived from it. Bridges are numbered along the chain shown (N, C = ends). [ ]: non-standard residue; d: D form. The star is where a group is joined. Ethylenediamine = C(CN[*:2])N[*:1]; Hyp = O=C(O)[C@@H]1C[C@@H](O)CN1; NMeF = CN[C@@H](Cc1ccccc1)C(=O)O; Decanoyl = CCCCCCCCCC(=O)*; NMeA = CN[C@@H](C)C(=O)O; Sar = CNCC(=O)O",
  "data": [
    {"compound": "CCCCCCCCCC(=O)NCCNC(=O)[C@@H]1CSCC(=O)N[C@@H](Cc2c[nH]c3ccccc23)C(=O)N[C@@H]([C@@H](C)O)C(=O)N(C)CC(=O)N[C@@H](CC(=O)O)C(=O)N(C)[C@@H](Cc2ccccc2)C(=O)N(C)[C@@H](Cc2ccccc2)C(=O)N[C@@H](C)C(=O)N(C)[C@@H](C)C(=O)N[C@@H](Cc2cnc[nH]2)C(=O)N[C@@H](Cc2ccc(O)cc2)C(=O)N[C@@H]([C@@H](C)O)C(=O)N[C@@H](C(C)C)C(=O)N2C[C@H](O)C[C@H]2C(=O)N[C@@H](C)C(=O)N1", "note": "[HA152] ({CH2CO}-WT[Sar]D[NMeF][NMeF]A[NMeA]HYTV[Hyp]AC-{Ethylenediamine-Decanoyl}; thioether N-15)", "values": [
      {"measurement": "inhibition of cell death in low concentration range", "setting": "[1]", "value": "remarkable inhibition of cell death"},
      {"measurement": "inhibition of cell death in low concentration range", "setting": "[2]", "value": "remarkable inhibition of cell death"},
      {"measurement": "inhibition of cell death in low concentration range", "setting": "[3]", "value": "remarkable inhibition of cell death"},
      {"measurement": "in vivo anti-virus activity compared to peramivir", "setting": "[4]", "value": "comparable or superior to peramivir"},
      {"measurement": "survival rate", "setting": "[4]; in vivo, iv", "value": 60, "unit": "%"}
    ]}
  ]
}
